Test results published in patent US10316017B2, “COT modulators and methods of use thereof” (Gilead Sciences, Inc., priority 2015, dated 2019).
Like-named read-outs stand apart in the source and are kept apart here.

Tests used:
[1] = target: T1, human Cot catalytic domain (30-397 amino acids) (Homo sapiens, UniProt P41279); test: High Throughput Cot Biochemical Assay (KinEASE TR-FRET); settings: Cot biochemical HTRF (KinEASE TR-FRET) assay; read-out: IC50 HTRF
T1 construct: Purified recombinant human Cot catalytic domain (30-397 amino acids) was purchased from Cama Biosciences; purchased Cama Biosciences (so in the source)
Summary of the method: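 TR-FRET (KinEASE) read-out: Eu-labelled phospho-specific antibody binds XL665-tagged STK3 peptide (1 μM) phosphorylated by 5 nM human Cot kinase domain (residues 30-397). Reaction at 400 μM ATP, pH 7.0 MOPS buffer with 10 mM MgOAc, 1 mM DTT and 0.1% DMSO.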

[2] = tested on: TNFα production in LPS-stimulated human monocytes; test: Cot Monocyte TNFα Cell Based Assay; settings: TNFα in LPS-stimulated human monocytes, read-out: EC50 TNF
Summary of the method: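 TNFα release quantified by two-antibody TR-FRET, normalised to unstimulated (0%) and LPS-stimulated (100%) wells. Cells got a 1 h compound exposure at 37° C in 0.5% DMSO before 4 h challenge with 50 pg/ml LPS, at 5,000 cells/well.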

T1 sequence (P41279 30-397): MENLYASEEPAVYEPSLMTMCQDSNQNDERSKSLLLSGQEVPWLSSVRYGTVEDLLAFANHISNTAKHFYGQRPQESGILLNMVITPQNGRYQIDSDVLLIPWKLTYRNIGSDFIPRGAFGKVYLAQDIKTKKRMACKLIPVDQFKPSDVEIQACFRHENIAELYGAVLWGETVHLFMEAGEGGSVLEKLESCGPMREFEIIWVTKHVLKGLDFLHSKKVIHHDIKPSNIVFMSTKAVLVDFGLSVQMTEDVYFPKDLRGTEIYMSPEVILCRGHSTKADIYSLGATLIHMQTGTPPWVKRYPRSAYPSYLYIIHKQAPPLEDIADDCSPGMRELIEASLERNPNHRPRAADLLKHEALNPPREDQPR

SMILES	IC50 [1]	EC50 ([2]; Homo sapiens, Monocyte)	EC50 [2]
N#Cc1cnc2c(Cl)cc(N[C@@H](c3ccc(F)cc3)c3c[nH]nn3)cc2c1NC1CCCC(O)C1 (stereo partly drawn) [Example 438, 8-chloro-6-(((S)-(4-fluorophenyl)(1H-1,2,3-triazol-4-yl)methyl)amino)-4-((3-hydroxycyclohexyl)amino) quinoline-3-carbonitrile]	135 nM	5130 nM	
N#Cc1cnc2c(Cl)cc(N[C@@H](c3ccc(F)cc3)c3c[nH]nn3)cc2c1NC1CCCC(O)C1 (stereo partly drawn) [Example 439, 8-chloro-6-(((S)-(4-fluorophenyl)(1H-1,2,3-triazol-4-yl)methyl)amino)-4-((3-hydroxycyclohexyl)amino) quinoline-3-carbonitrile]	2960 nM		> 10000 nM
CC(C)(C)N1CCC(n2cc([C@@H](Nc3cc(Cl)c4ncc(C#N)c(NC5CCCC(O)C5)c4c3)c3ccc(F)cc3)nn2)CC1 (stereo partly drawn) [Example 440, 6-(((S)-(1-(1-(tert-butyl)piperidin-4-yl)-1H-1,2,3-triazol-4-yl)(4-fluorophenyl)methyl)amino)-8-chloro-4-((3-hydroxycyclohexyl)amino) quinoline-3-carbonitrile]	46 nM		371 nM
CC(C)(C)N1CCC(n2cc([C@@H](Nc3cc(Cl)c4ncc(C#N)c(NC5CCCC(O)C5)c4c3)c3ccc(F)cc3)nn2)CC1 (stereo partly drawn) [Example 441, 6-(((S)-(1-(1-(tert-butyl)piperidin-4-yl)-1H-1,2,3-triazol-4-yl)(4-fluorophenyl)methyl)amino)-8-chloro-4-((3-hydroxycyclohexyl)amino) quinoline-3-carbonitrile]	804 nM		5820 nM
COc1ccccc1CNc1c(C#N)cnc2c(Cl)cc(N[C@@H](c3ccc(F)cc3)c3cn(C4CCN(C(C)(C)C)CC4)nn3)cc12 [Example 442, (S)-6-(((1-(1-(tert-butyl)piperidin-4-yl)-1H-1,2,3-triazol-4-yl)(4-fluorophenyl)methyl)amino)-8-chloro-4-((2-methoxybenzyl)amino) quinoline-3-carbonitrile]	193 nM	4900 nM	
N#Cc1cnc2c(Cl)cc(N[C@@H](c3ccc(F)cc3)c3c[nH]nn3)cc2c1NCC(F)(F)F [Example 443, (S)-8-chloro-6-(((4-fluorophenyl)(1H-1,2,3-triazol-4-yl)methyl)amino)-4-((2,2,2-trifluoroethyl)amino) quinoline-3-carbonitrile]	2700 nM	> 10000 nM	
CC[C@@H](Nc1c(C#N)cnc2c(Cl)cc(N[C@H](c3c[nH]nn3)c3ccccc3F)cc12)c1ccccc1 [Example 444, 8-chloro-6-(((S)-(2-fluorophenyl)(1H-1,2,3-triazol-4-yl)methyl)amino)-4-(((R)-1 phenylpropyl)amino) quinoline-3-carbonitrile]	28 nM	855 nM	
CC[C@@H](Nc1c(C#N)cnc2c(Cl)cc(N[C@H](c3c[nH]nn3)c3cccc(F)c3F)cc12)c1ccccc1 [Example 445, 8-chloro-6-(((S)-(2,3-difluorophenyl)(1H-1,2,3-triazol-4-yl)methyl)amino)-4-(((R)-1-phenylpropyl)amino) quinoline-3-carbonitrile]	46 nM	1270 nM	
CC[C@@H](Nc1c(C#N)cnc2c(Cl)cc(N[C@H](c3cn(CCF)nn3)c3ccccc3F)cc12)c1ccccc1 [Example 446, 8-chloro-6-(((S)-(1-(2-fluoroethyl)-1H-1,2,3-triazol-4-yl)(2-fluorophenyl)methyl)amino)-4-(((R)-1-phenylpropyl)amino) quinoline-3-carbonitrile]	11 nM	338 nM	
N#Cc1cnc2c(Cl)cc(N[C@H](c3c[nH]nn3)c3ccccc3F)cc2c1Nc1cnc(F)c(F)c1 [Example 447, (S)-8-chloro-4-((5,6-difluoropyridin-3-yl)amino)-6-(((2-fluorophenyl) (1H-1,2,3-triazol-4-yl)methyl)amino)quinoline-3-carbonitrile]	23 nM	1930 nM	
N#Cc1cnc2c(Cl)cc(N[C@H](c3c[nH]nn3)c3cccc(F)c3F)cc2c1Nc1cnc(F)c(F)c1 [Example 448, (S)-8-chloro-6-(((2,3-difluorophenyl)(1H-1,2,3-triazol-4-yl)methyl)amino)-4-((5,6-difluoropyridin-3-yl)amino)quinoline-3-carbonitrile]	26 nM	1860 nM	
N#Cc1cnc2c(Cl)cc(N[C@@H](c3ccc(F)cc3)c3c[nH]nn3)cc2c1Nc1ccc(Cl)c(Cl)c1F [Example 449, (S)-8-chloro-4-((3,4-dichloro-2-fluorophenyl)amino)-6-(((4-fluorophenyl)(1H-1,2,3-triazol-4-yl)methyl)amino)quinoline-3-carbonitrile]	161 nM	830 nM	
N#Cc1cnc2c(Cl)cc(N[C@@H](c3cccc(-c4ncco4)c3)c3cn(C4CC4)nn3)cc2c1Nc1cnc(F)c(F)c1 [Example 450, (S)-8-chloro-6-(((1-cyclopropyl-1H-1,2,3-triazol-4-yl)(3-(oxazol-2-yl)phenyl)methyl)amino)-4-((5,6-difluoropyridin-3-yl)amino)quinoline-3-carbonitrile]	3 nM	305 nM	
COC(C)(C)CNc1c(C#N)cnc2c(Cl)cc(N[C@@H](c3ccccc3)c3cn(C4CCN(C(C)(C)C)CC4)nn3)cc12 [Example 451]	68 nM	266 nM	
CC1(CNc2c(C#N)cnc3c(Cl)cc(N[C@@H](c4ccccc4)c4cn(C5CCN(C(C)(C)C)CC5)nn4)cc23)COC1 [Example 452, (S)-6-(((1-(1-(tert-butyl)piperidin-4-yl)-1H-1,2,3-triazol-4-yl)(phenyl)methyl)amino)-8-chloro-4-(((3-methyloxetan-3-yl)methyl)amino)quinoline-3-carbonitrile]	98 nM	420 nM	
CC1(CNc2c(C#N)cnc3c(Cl)cc(N[C@@H](c4ccccc4)c4cn(C5CCN(C(C)(C)C)CC5)nn4)cc23)CCC1 [Example 453, (S)-6-(((1-(1-(tert-butyl)piperidin-4-yl)-1H-1,2,3-triazol-4-yl)(phenyl)methyl)amino)-8-chloro-4-(((1-methylcyclobutyl)methyl)amino)quinoline-3-carbonitrile]	11 nM	231 nM	
CC(C)(C)N1CCC(n2cc([C@@H](Nc3cc(Cl)c4ncc(C#N)c(NCC5CCC5)c4c3)c3ccccc3)nn2)CC1 [Example 454, (S)-6-(((1-(1-(tert-butyl)piperidin-4-yl)-1H-1,2,3-triazol-4-yl)(phenyl)methyl)amino)-8-chloro-4-((cyclobutylmethyl)amino) quinoline-3-carbonitrile]	49 nM	1770 nM	
CC1(CNc2c(C#N)cnc3c(Cl)cc(N[C@@H](c4ccccc4)c4cn(C5CCN(C(C)(C)C)CC5)nn4)cc23)CC1 [Example 455, (S)-6-(((1-(1-(tert-butyl)piperidin-4-yl)-1H-1,2,3-triazol-4-yl)(phenyl)methyl)amino)-8-chloro-4-(((1-methylcyclopropyl)methyl)amino)quinoline-3-carbonitrile]	48 nM	171 nM	
N#Cc1cnc2c(Cl)cc(N[C@@H](c3ccc(F)cc3)c3cn(C4CC4)nn3)cc2c1Nc1cnc(F)c(F)c1 [Example 456, (S)-8-chloro-6-(((1-cyclopropyl-1H-1,2,3-triazol-4-yl)(4-fluorophenyl)methyl)amino)-4-((5,6-difluoropyridin-3-yl)amino)quinoline-3-carbonitrile]	7 nM	305 nM	
CC(C)(C)n1cc([C@@H](Nc2cc(Cl)c3ncc(C#N)c(Nc4cnc(F)c(F)c4)c3c2)c2ccc(F)cc2)nn1 [Example 457, (S)-6-(((1-(tert-butyl)-1H-1,2,3-triazol-4-yl)(4-fluorophenyl)methyl)amino)-8-chloro-4-((5,6-difluoropyridin-3-yl)amino)quinoline-3-carbonitrile]	43 nM	616 nM	
CC(C)n1cc([C@@H](Nc2cc(Cl)c3ncc(C#N)c(Nc4cnc(F)c(F)c4)c3c2)c2ccc(F)cc2)nn1 [Example 458, (S)-8-chloro-4-((5,6-difluoropyridin-3-yl)amino)-6-(((4-fluorophenyl)(1-isopropyl-1H-1,2,3-triazol-4-yl)methyl)amino)quinoline-3-carbonitrile]	17 nM	598 nM	
N#Cc1cnc2c(Cl)cc(N[C@@H](c3ccc(F)cc3)c3cn(CCCN4CCCC4)nn3)cc2c1Nc1cnc(F)c(F)c1 [Example 459]	9 nM	454 nM	
N#Cc1cnc2c(Cl)cc(N[C@H](c3c[nH]nn3)c3ccc(F)cc3F)cc2c1Nc1cnc(F)c(F)c1 [Example 460, (S)-8-chloro-6-(((2,4-difluorophenyl)(1H-1,2,3-triazol-4-yl)methyl)amino)-4-((5,6-difluoropyridin-3-yl)amino)quinoline-3-carbonitrile]	23 nM	1260 nM	
[2H][C@](Nc1cc(Cl)c2ncc(C#N)c(Nc3cnc(F)c(F)c3)c2c1)(c1ccccc1)c1c[nH]nn1 [Example 461, (S)-8-chloro-4-((5,6-difluoropyridin-3-yl)amino)-6-((phenyl(1H-1,2,3-triazol-4-yl)methyl-d)amino)quinoline-3-carbonitrile]	20 nM	1530 nM	
CS(=O)(=O)c1cccc([C@H](Nc2cc(Cl)c3ncc(C#N)c(Nc4ccc(Cl)c(Cl)c4F)c3c2)c2c[nH]nn2)c1 [Example 462, (S)-8-chloro-4-((3,4-dichloro-2-fluorophenyl)amino)-6-(((3-(methylsulfonyl)phenyl) (1H-1,2,3-triazol-4-yl)methyl)amino)quinoline-3-carbonitrile]	17 nM	787 nM	
